pIC50: −log10 of the molar value.
Each molecule was assayed against Coagulation factor XI (Homo sapiens) (UniProt P03951) (assay: Inhibition of human factor 11a using GPR-AFC as substrate preincubated for 30 mins followed by substrate addition and measured after 60 mins by fluorescence based analysis).
Sequence of Coagulation factor XI (Homo sapiens) (P03951 whole entry, looked up): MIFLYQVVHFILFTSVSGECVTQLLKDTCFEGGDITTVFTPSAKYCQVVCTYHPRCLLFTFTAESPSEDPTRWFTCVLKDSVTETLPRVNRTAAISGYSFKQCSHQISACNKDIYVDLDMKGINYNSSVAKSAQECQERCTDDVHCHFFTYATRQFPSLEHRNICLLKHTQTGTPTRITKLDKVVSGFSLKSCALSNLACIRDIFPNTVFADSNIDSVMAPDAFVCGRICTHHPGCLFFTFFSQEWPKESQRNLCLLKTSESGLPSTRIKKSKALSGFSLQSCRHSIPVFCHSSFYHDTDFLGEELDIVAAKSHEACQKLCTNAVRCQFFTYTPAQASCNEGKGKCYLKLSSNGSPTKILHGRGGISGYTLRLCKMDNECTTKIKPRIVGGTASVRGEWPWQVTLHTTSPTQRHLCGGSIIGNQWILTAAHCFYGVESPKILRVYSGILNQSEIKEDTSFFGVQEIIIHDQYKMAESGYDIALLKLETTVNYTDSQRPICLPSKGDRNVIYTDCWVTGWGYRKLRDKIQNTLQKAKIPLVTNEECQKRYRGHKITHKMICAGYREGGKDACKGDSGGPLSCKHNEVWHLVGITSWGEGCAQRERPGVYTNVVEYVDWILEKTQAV

pIC50	Structure (SMILES)
5.00	Cc1cnn(Cc2ccc(CNC(=O)c3cnnc(N4CC[C@]5(C4)OC(=O)Nc4ccc(Cl)c(F)c45)c3)cc2)c1
5.00	Cc1cnn(Cc2ccc(CNC(=O)c3cncc(N4CC[C@]5(C4)OC(=O)Nc4ccc(Cl)c(F)c45)c3)cn2)c1
5.00	CN1CCN(c2ccc(CNC(=O)c3cncc(N4CC[C@]5(C4)OC(=O)Nc4ccc(Cl)c(F)c45)n3)cn2)CC1
5.13	C[C@H]1CCN(c2ccc(CNC(=O)c3cnnc(N4CC[C@]5(C4)OC(=O)Nc4ccc(Cl)c(F)c45)c3)cn2)C1
5.00	O=C1Nc2ccc(Cl)c(F)c2[C@]2(CCN(c3cncc(C(=O)NCc4ccc(Cn5ccccc5=O)nc4)c3)C2)O1
5.00	O=C1Nc2ccc(Cl)c(F)c2[C@]2(CCN(c3cncc(C(=O)NCc4ccc(N5CCC5)nc4)n3)C2)O1
5.00	CN1CCCC1c1ccc(CNC(=O)c2cnnc(N3CC[C@]4(C3)OC(=O)Nc3ccc(Cl)c(F)c34)c2)cc1 (stereo not given in full)
5.00	C[C@H]1CCN(c2ccc(CNC(=O)c3cncc(N4CC[C@]5(C4)OC(=O)Nc4ccc(Cl)c(F)c45)n3)cn2)C1
5.00	O=C1Nc2ccc(Cl)c(F)c2[C@]2(CCN(c3cncc(C(=O)NCc4ccc(Cn5ccccc5=O)nc4)n3)C2)O1
5.00	N#CC1(F)CN(Cc2ccc(CNC(=O)c3cnnc(N4CC[C@]5(C4)OC(=O)Nc4ccc(Cl)c(F)c45)c3)cc2)C1

From BindingDB's records for PubMed 36793429 (Therachem Research Medilab, 2023)
